Results published in PubChem BioAssay AID1963970 (Molecular Pharmacology Branch, DTP, NCI, 2024).

Test system: 931267-113-T-J1-PDC multicell spheroid viability
Experiment: Anticancer human tumor 931267-113-T-J1-PDC patient-derived colon adenocarcinoma cell line growth inhibition [PI3K]
Conditions: for IC50: curve of first compound; for viability, T/C: stronger effect = lower value; active means viability on the fitted dose curve at most 10% of control; inactive means the rest
Summary of the method: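 Stroma-containing spheroids: tumor line, pooled-donor HUVEC, hMSC. Treatments: targeted agents with PI3K inhibitors. Dosing: clinically relevant, half-log spacing, 10 microM ceiling without known Cmax. Read-out: cell viability.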

[1] = second compound 0.00316 µM, first compound 0.0316 µM
[2] = second compound 0.00316 µM, first compound 0.1 µM
[3] = second compound 0.00316 µM, first compound 0.316 µM
[4] = second compound 0.00316 µM, first compound 1 µM
[5] = second compound 0.00316 µM, first compound 3.16 µM
[6] = second compound 0.00316 µM, first compound 10 µM
[7] = second compound 0.01 µM, first compound 0.0316 µM
[8] = second compound 0.01 µM, first compound 0.1 µM
[9] = second compound 0.01 µM, first compound 0.316 µM
[10] = second compound 0.01 µM, first compound 1 µM
[11] = second compound 0.01 µM, first compound 3.16 µM
[12] = second compound 0.01 µM, first compound 10 µM
[13] = second compound 0.0316 µM, first compound 0.0316 µM
[14] = second compound 0.0316 µM, first compound 0.1 µM
[15] = second compound 0.0316 µM, first compound 0.316 µM
[16] = second compound 0.0316 µM, first compound 1 µM
[17] = second compound 0.0316 µM, first compound 3.16 µM
[18] = second compound 0.0316 µM, first compound 10 µM
[19] = second compound 0.1 µM, first compound 0.0316 µM
[20] = second compound 0.1 µM, first compound 0.1 µM
[21] = second compound 0.1 µM, first compound 0.316 µM
[22] = second compound 0.1 µM, first compound 1 µM
[23] = second compound 0.1 µM, first compound 3.16 µM
[24] = second compound 0.1 µM, first compound 10 µM
[25] = second compound 0.316 µM, first compound 0.0316 µM
[26] = second compound 0.316 µM, first compound 0.1 µM
[27] = second compound 0.316 µM, first compound 0.316 µM
[28] = second compound 0.316 µM, first compound 1 µM
[29] = second compound 0.316 µM, first compound 3.16 µM
[30] = second compound 0.316 µM, first compound 10 µM
[31] = second compound 1 µM, first compound 0.0316 µM
[32] = second compound 1 µM, first compound 0.1 µM
[33] = second compound 1 µM, first compound 0.316 µM
[34] = second compound 1 µM, first compound 1 µM
[35] = second compound 1 µM, first compound 3.16 µM
[36] = second compound 1 µM, first compound 10 µM
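Further: viability read 7 days after compound addition.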

CC1(C)CCC(Nc2ncc(C(F)(F)F)c(-c3c[nH]c4c(P(C)(C)=O)c(C#N)ccc34)n2)CN1 (stereo unspecified) + COc1c(OCCCN2CCOCC2)ccc2c3n(c(=NC(=O)c4cnc(N)nc4)nc12)CCN3
4.29 µM: IC50 (second compound 0.1 µM)
< 0.0316 µM: IC50 (second compound 0.316 µM) | IC50 (second compound 1 µM)
inactive: viability, T/C [1] 92.5% | viability, T/C [2] 94.2% | viability, T/C [3] 91.6% | viability, T/C [4] 81.2% | viability, T/C [5] 76.5% | viability, T/C [6] 69.3% | viability, T/C [7] 97.3% | viability, T/C [8] 89.5% | viability, T/C [9] 81.5% | viability, T/C [10] 83.5% | viability, T/C [11] 77.3% | viability, T/C [12] 61.5% | viability, T/C [13] 81.6% | viability, T/C [14] 78% | viability, T/C [15] 77.6% | viability, T/C [16] 67.1% | viability, T/C [17] 70.6% | viability, T/C [18] 55.2% | viability, T/C [19] 64.5% | viability, T/C [20] 66.1% | viability, T/C [21] 60% | viability, T/C [22] 58.2% | viability, T/C [23] 55.5% | viability, T/C [24] 39.8% | viability, T/C [25] 47.3% | viability, T/C [26] 44.8% | viability, T/C [27] 41.2% | viability, T/C [28] 41.5% | viability, T/C [29] 40.6% | viability, T/C [30] 33.5% | viability, T/C [31] 33.8% | viability, T/C [32] 30.1% | viability, T/C [33] 30.2% | viability, T/C [34] 28.3% | viability, T/C [35] 30.5% | viability, T/C [36] 20.9%
> 10 µM: IC50 (second compound 0.00316 µM) | IC50 (second compound 0.01 µM) | IC50 (second compound 0.0316 µM)

CC1(C)CCC(Nc2ncc(C(F)(F)F)c(-c3c[nH]c4c(P(C)(C)=O)c(C#N)ccc34)n2)CN1 (stereo unspecified) + CC(Nc1ccc2c(c1)OCCn1cc(N3C(=O)OCC3C(F)F)nc1-2)C(N)=O
6.39 µM: IC50 (second compound 0.316 µM)
> 10 µM: IC50 (second compound 0.00316 µM) | IC50 (second compound 0.01 µM) | IC50 (second compound 0.1 µM)
4.8 µM: IC50 (second compound 1 µM)
8.54 µM: IC50 (second compound 0.0316 µM)
inactive: viability, T/C [1] 99.7% | viability, T/C [2] 88.6% | viability, T/C [3] 85.2% | viability, T/C [4] 71.8% | viability, T/C [5] 78.2% | viability, T/C [6] 49.5% | viability, T/C [7] 102% | viability, T/C [8] 89.2% | viability, T/C [9] 83.5% | viability, T/C [10] 74.6% | viability, T/C [11] 67.7% | viability, T/C [12] 49.8% | viability, T/C [13] 91.2% | viability, T/C [14] 88.2% | viability, T/C [15] 79.6% | viability, T/C [16] 71.5% | viability, T/C [17] 72.8% | viability, T/C [18] 45% | viability, T/C [19] 99.7% | viability, T/C [20] 90.5% | viability, T/C [21] 76.6% | viability, T/C [22] 74% | viability, T/C [23] 73.7% | viability, T/C [24] 46.2% | viability, T/C [25] 87% | viability, T/C [26] 79% | viability, T/C [27] 72.9% | viability, T/C [28] 74.1% | viability, T/C [29] 73.1% | viability, T/C [30] 36% | viability, T/C [31] 81.4% | viability, T/C [32] 75.4% | viability, T/C [33] 64.2% | viability, T/C [34] 65.2% | viability, T/C [35] 64.2% | viability, T/C [36] 34.6%

CC(C)NCC(C(=O)N1CCN(c2ncnc3c2C(C)CC3O)CC1)c1ccc(Cl)cc1 (stereo unspecified) + CC(Nc1ncnc2nc[nH]c12)c1cc2cccc(Cl)c2c(=O)n1-c1ccccc1
inactive: viability, T/C [13] 97.2% | viability, T/C [14] 99.5% | viability, T/C [15] 92.1% | viability, T/C [16] 101% | viability, T/C [17] 97.1% | viability, T/C [18] 81.6% | viability, T/C [19] 108% | viability, T/C [20] 95.6% | viability, T/C [21] 100% | viability, T/C [22] 98.8% | viability, T/C [23] 97.1% | viability, T/C [24] 74.7% | viability, T/C [25] 108% | viability, T/C [26] 107% | viability, T/C [27] 106% | viability, T/C [28] 94.7% | viability, T/C [29] 99.6% | viability, T/C [30] 85% | viability, T/C [31] 105% | viability, T/C [32] 107% | viability, T/C [33] 93% | viability, T/C [34] 99.6% | viability, T/C [35] 99.1% | viability, T/C [36] 80.7% | viability, T/C (second compound 3.16 µM, first compound 0.0316 µM) 103% | viability, T/C (second compound 3.16 µM, first compound 0.1 µM) 100% | viability, T/C (second compound 3.16 µM, first compound 0.316 µM) 89.7% | viability, T/C (second compound 3.16 µM, first compound 1 µM) 94.6% | viability, T/C (second compound 3.16 µM, first compound 3.16 µM) 90.9% | viability, T/C (second compound 3.16 µM, first compound 10 µM) 71.7% | viability, T/C (second compound 10 µM, first compound 0.0316 µM) 95.2% | viability, T/C (second compound 10 µM, first compound 0.1 µM) 86% | viability, T/C (second compound 10 µM, first compound 0.316 µM) 86.8% | viability, T/C (second compound 10 µM, first compound 1 µM) 87.7% | viability, T/C (second compound 10 µM, first compound 3.16 µM) 88.7% | viability, T/C (second compound 10 µM, first compound 10 µM) 75.1%
> 10 µM: IC50 (second compound 0.0316 µM) | IC50 (second compound 0.1 µM) | IC50 (second compound 0.316 µM) | IC50 (second compound 1 µM) | IC50 (second compound 3.16 µM) | IC50 (second compound 10 µM)
